Measurements published in patent US20220017778A1, “Methods of Treating Inorganic Surfaces” (ZYDEX INC., priority 2018, published 2022).

Assay: Solubility / dispersibility of the product in water
Format: physicochemical
Conditions: general statement in the description
Description: A two liter, three necked flask equipped with a condenser, stirrer, thermometer, and distillation head was charged with (i) 136 grams of methyltrimethoxysilane, (ii) 186 grams of monoehtylene glycol, and (iii) 0.6 grams of tetra isopropyltitanate was added into the mixture to facilitate a transesterification reaction to provide a non-ionic water soluble organosilane. This mixture was heated to 120° C. for two hours, during which 92 grams of methanol were recovered after which the reaction was deemed complete.
A two liter, three necked flask equipped with a condenser, stirrer, thermometer, and distillation head was charged with (i) 164 grams of methyltrimethoxysilane, (ii) 186 grams of monoehtylene glycol, and (iii) 0.6 grams of tetra isopropyltitanate was added into the mixture to facilitate a transesterification reaction to provide a non-ionic water soluble organosilane. This mixture was heated to 120° C. for two hours, during which 95 grams of methanol were recovered after which the reaction was deemed complete.

CO[Si](C)(OC)OC [methyltrimethoxysilane (MTMS), methyltrimethoxysilane]
water solubility, in words (description): insoluble in water
